Reference: article PMC5118709, “Identification of Polo-like kinase 1 interaction inhibitors using a novel cell-based assay” (Scientific Reports, 2016)

Tests used:
HeLa cells [1] = assay: mitotic defect phenotypes by immunofluorescence; type: cell-based; conditions: 10 μM, 7 h
Method in brief: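 HeLa cells on poly-L-lysine coverslips treated 7 h, fixed in 4% formaldehyde/PHEM at 37 °C. Immunostained for pericentrin and α-tubulin with DAPI for DNA; spindle organisation scored by fluorescence microscopy against DMSO controls.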

Plk1-Map interaction = Plk1-Map interaction (Homo sapiens, UniProt P53350); assay: BRET Plk1-Map, transient Luc-Map/Plk1-GFP in HEK293T; type: cell-based; set-up: cDNAs for the human full length Plk1; expressed in transfected cells; conditions: confirmation screen
Chain of Plk1-Map interaction (P53350 whole entry): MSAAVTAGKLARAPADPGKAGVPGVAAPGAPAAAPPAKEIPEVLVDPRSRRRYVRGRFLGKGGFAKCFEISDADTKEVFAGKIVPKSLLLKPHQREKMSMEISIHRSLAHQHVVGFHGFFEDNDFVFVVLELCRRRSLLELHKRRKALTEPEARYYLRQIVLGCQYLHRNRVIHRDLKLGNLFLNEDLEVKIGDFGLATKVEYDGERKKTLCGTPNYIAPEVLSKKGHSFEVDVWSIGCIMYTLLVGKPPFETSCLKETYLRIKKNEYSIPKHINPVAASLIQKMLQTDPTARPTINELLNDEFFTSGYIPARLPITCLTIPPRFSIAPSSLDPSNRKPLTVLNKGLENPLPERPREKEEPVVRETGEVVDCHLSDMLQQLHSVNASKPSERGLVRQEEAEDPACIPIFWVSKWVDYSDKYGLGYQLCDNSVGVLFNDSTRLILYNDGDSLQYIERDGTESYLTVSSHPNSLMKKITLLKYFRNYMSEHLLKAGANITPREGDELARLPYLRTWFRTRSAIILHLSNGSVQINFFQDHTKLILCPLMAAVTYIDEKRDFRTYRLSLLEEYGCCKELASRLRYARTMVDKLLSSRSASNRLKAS
Experimental: For the confirmation screen, the same procedure as for the primary screen was followed, except that HEK293T cells were also seeded at 6.25 millions of cells per simple CellStack on day 1 for transient transfections. These cells were transfected on day 3 with Luc-Map (5 μg) and Plk1-GFP (25 μg) pIRESHyg3 plasmids using polyethylenimine (PEI). To identify false-positives compounds, Luc-CRAF (4 μg) and GFP-BRAF (20 μg) plasmids were also transfected with PEI following the published procedure.

PBD of Plk1 = PBD of Plk1 (Homo sapiens, UniProt P53350); assay: fluorescence polarization assay PBD-Map peptide; type: binding
Chain of PBD of Plk1 (P53350 367-603 limits assumed): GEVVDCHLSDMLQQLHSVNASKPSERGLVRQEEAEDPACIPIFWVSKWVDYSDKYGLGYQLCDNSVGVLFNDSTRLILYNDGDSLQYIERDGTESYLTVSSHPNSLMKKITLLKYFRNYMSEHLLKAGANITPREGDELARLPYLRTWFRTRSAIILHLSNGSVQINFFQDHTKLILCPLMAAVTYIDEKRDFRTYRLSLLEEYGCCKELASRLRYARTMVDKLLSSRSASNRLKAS
Experimental: The FP buffer was composed of 10 mM Tris pH 8.0, 50 mM NaCl, 1 mM EDTA, 20% glycerol and 0.1% NP-40. The peptide (final concentration 10 nM) was always added to the wells of non-binding, black, 384-well plates, 1 hour after the addition of the protein with the buffer (+/− treatment, 10% DMSO). […] EC65s were used to perform the competitive assays with the non-labeled peptides and with the inhibitors. FP Inhibition was calculated with the formula: 100 − [((mPsample − mPfree peptide)\(mPDMSO − mPfree peptide)) × 100]. […] (Map peptide), and corresponding non-labeled peptides are identical but without FITC in N-terminal. […] Inhibition curves were fitted with GraphPad (Prism software).

HeLa cells [2] = assay: mitotic index assay (phospho-Histone H3) in HeLa cells; type: cell-based; conditions: 10-25 μM, 7 h

SMILES: Cc1cc(C(F)(F)F)cc(S(=O)(=O)CCOC(=O)c2cccc(Cl)c2)n1 [Cpd 16, 2-((6-methyl-4-(trifluoromethyl)pyridin-2-yl)sulfonyl)ethyl 3-chlorobenzoate]
- 2 > pericentrin foci (percentage of cells) (HeLa cells [1]): 23 ± 11%
- Disorganized spindles (percentage of cells) (HeLa cells [1]): 58 ± 13%
- Confirmation Plk1-Map (transient) % Inihibition (Plk1-Map interaction): 30.06%
- Confirmation Plk1-Map (transient) % Quench RLuc (Plk1-Map interaction): 74.57%
- disruption of the PBD-Map interaction in FP (PBD of Plk1): disrupted the PBD-Map interaction
- Mitotic index (%) (HeLa cells [2]): 15.73%
